From patent US6297230A, “Cyanoaziridines for treating cancer” (priority 2000, dated 2001)
Converted amounts (≈) assume the structure as drawn. Like-named read-outs stand apart in the source and are kept apart here.

Assays:
[1] = tested on: L-1210 leukemia cells (sensitive); test: MTT growth inhibition, sensitive L-1210 leukemia cells; assay type: cell-based, mouse; conditions: Mus musculus, L1210, 192 h
Method: Tumors are disaggregated into single cell suspensions using mechanical, hypoosmotic, and/or enzymatic (trypsin) methods. The cells are plated at a concentration of 3-5×10^4 per […] well into plastic 96-well plates. Growth medium containing 5-10% (vol/vol) heat-inactivated fetal bovine serum and penicillin/streptomycin (both […]) are added prior to incubation at 37° C. for 6 days. Afterwards the medium containing the drug is removed, the cells are centrifuged in fresh medium or phosphate-buffered saline (pH 7.4). A tetrazolium dye, […]-2,5-diphenyl tetrazolium (MTT), is then added. (Mossman, T., J Immunol 65:55-63, 1983.) This dye forms a colored formazan product upon activation by mitochondrial reductases in viable cells. Typically, the formazan product is solubilized in acid-propanol or DMSO. The intensity of the color is proportional to viable cell numbers and this is quantitated by spectrophotometric absorbance at 570 nm on a micro ELISA plate reader. The results are calibrated in % control absorbance from untreated tumor cells. (Alley, et al., Cancer Res 48:589-601, 1988.) […]
Murine L-1210 Leukemia Cells were first described by Law, et al. from a female DBA/2 mouse exposed to topical methylcholanthrene. (Law, et al., J Natl Cancer Inst 10:179-192, 1949.) The cells represent a lymphocytic lineage and are highly tumorigenic in syngeneic DBA/2 mice, producing lethality typically 10-14 days after inoculation. This cell line has been used extensively to characterize the antitumor activity of chemotherapeutic agents. (Goldin, et al., Cancer Res (Cancer Chemotherapy Screening Data IX) 21:27-92, 1961.) The L-1210 cells have a model 40-41 chromosomes and a very high plating efficiency in suspension cultures in vitro.
(§1) *Drug continuously present for 8 days; IC50 measured by MTT dye

8226/S myeloma cells = test: MTT growth inhibition, parental 8226 myeloma cells; assay type: cell-based, human
Method: (§2) Microculture Tetrazolium (MTT) Assay for Tumor Cells
(§3) Tumors are disaggregated into single cell suspensions using mechanical, hypoosmotic, and/or enzymatic (trypsin) methods. The cells are plated at a concentration of 3-5×10^4 per […] well into plastic 96-well plates. Growth medium containing 5-10% (vol/vol) heat-inactivated fetal bovine serum and penicillin/streptomycin (both […]) are added prior to incubation at 37° C. for 6 days. Afterwards the medium containing the drug is removed, the cells are centrifuged in fresh medium or phosphate-buffered saline (pH 7.4). A tetrazolium dye, […]-2,5-diphenyl tetrazolium (MTT), is then added. (Mossman, T., J Immunol 65:55-63, 1983.) This dye forms a colored formazan product upon activation by mitochondrial reductases in viable cells. Typically, the formazan product is solubilized in acid-propanol or DMSO. The intensity of the color is proportional to viable cell numbers and this is quantitated by spectrophotometric absorbance at 570 nm on a micro ELISA plate reader. The results are calibrated in % control absorbance from untreated tumor cells. (Alley, et al., Cancer Res 48:589-601, 1988.)
(§4) The following unpublished studies were performed in vitro to develop and characterize a human myeloma cell line with resistance to imexon-induced cytotoxicity. The original (parental) 8226 cell line was developed by Matsuoka, et al. (Matsuoka, et al., Proc Soc Exp Biol Med 125:1246-1250, 1967). It is a lymphoblastoid cell line which stains for lambda light immunoglobulin production. It grows in vitro in suspension culture (non-adherent) and forms tumors when injected into SCID mice. (Skehan, et al., J Natl Cancer Inst 82:1107-1112, 1990.)
(§5) One exciting feature of our novel compounds is, that they work on imexon-resistant cells. An imexon-resistant 8226 myeloma cell line was selected by continuously exposing cells to gradually increasing concentrations of imexon up to 3.25 mg/mL. This cell line has slightly longer cell doubling time than 8226 sensitive cells (24 vs 20 hours). […] The dose response curve for imexon continuous exposure was determined using MTT assay. Each data point represents the mean of three experiments performed in 8 replicates.
(§6) We compared IC50 concentrations and there is a 4-fold resistance observed for the 8226/I-R cell line when the cells were continuously exposed to imexon for […] at 37° C. The degree of resistance was relatively unstable in the absence of the drug, with the resistant cells losing substantial resistance when maintained in imexon-free medium for 20 weeks (FIG. 2).
(§7) IC50 was measured by MTT assay. IC50 refer to the concentration by drug that results in 50% growth inhibition. A minimum of 2 assays were performed for each drug following 250 mg/mL imexon is equivalent to 6.5 cGy radiation in sensitive cells.
(§8) Using the colorimetric microculture tetrazolium (MTT) assay, imexon and 25-related analogs were studied for tumor growth inhibition in vitro. Imexon-induced DNA single strand breaks were assessed by alkaline elution. Cells were exposed to imexon for 1 hour prior to start of experiment. The fraction of ^14 C-labeled DNA retained on the filter is plotted against the time of elution. The cells included parental 8226 myeloma cells and the 8226 imexon-resistant cells exposed to drug (imexon or analog) continuously for 10 days at 37° C. At the end of the exposure period, the cells were analyzed for viability using the formazan-forming tetrazolium dye (MTT) assay.

8226/I-R myeloma cells = test: MTT growth inhibition, imexon-resistant 8226 myeloma cells; assay type: cell-based, human; conditions: for Fold Resistance of IC50 R/IC50 's: imexon-resistant vs sensitive 8226; for Cross-resistance of imexon-resistant cells: 8226 imexon-resistant cells
Method: as §2, §3, §4, §5, §6, §7, §8

[2] = tested on: L-1210 MDR leukemia cells; test: MTT growth inhibition, multidrug-resistant L-1210 leukemia cells; assay type: cell-based, mouse; conditions: for IC50: Mus musculus, L1210, 192 h
Method: as §3
In addition, the imexon analogs have also been tested in a multidrug-resistant (MDR) mouse L-1210 leukemia cell line.
L-1210 MDR Cells represent a multidrug-resistant cell line developed for resistance to the alkylating agent mitomycin C. (Dorr, et al., Biochem Pharmacol 36(19):3115-3120, 1987.) This cell line has the same general growth characteristics of the parental line, but is cross-resistant to numerous natural-product based anticancer agents. This includes anthracyclines such as doxorubicin (Adriamycin®) and vinca alkaloids such as vincristine or vinblastine.
as §1

WiDr MITOX cells = conditions: cited from earlier work
[3] = tested on: L-1210 MDR leukemia cells; conditions: cited from earlier work
[4] = tested on: OVCAR-3 ovarian carcinoma cells; conditions: clinically relevant concentrations in vitro; cited from earlier work
[5] = Homo sapiens, Table 5, Sensitive (parental) 8226, read-out: IC50
[6] = Homo sapiens, Table 5, imexon-resistant 8226, read-out: IC50
[7] = Homo sapiens, 8226/S, MTT, read-out: IC50
[8] = Homo sapiens, 8226/I-R, MTT, read-out: IC50

**Q.** Which IC50 [1] does the source give for `N#CC1CN1C(N)=O` (centres unmarked) [AMP 409, 2-cyanoaziridine-1-carboxamide, reference compound] here?
**A.** > 10 µg/mL

**Q.** What about the IC50 (8226/S myeloma cells; [5]) of the same compound?
**A.** 32 µg/mL

**Q.** What about the IC50 (8226/I-R myeloma cells; [6]) of the same compound?
**A.** 48 µg/mL

**Q.** What about the “Fold Resistance of IC50 R/IC50 's” value (8226/I-R myeloma cells; Table 5) of the same compound?
**A.** 1.5

**Q.** And the IC50 [2]?
**A.** > 10 µg/mL

**Q.** For `N.N.O=C([O-])C1(C(=O)[O-])CCC1.[Pt+2]` [Carboplatin, reference compound], which IC50 (8226/S myeloma cells; 8226/S, MTT, read-out: IC50) is on record?
**A.** 9700 nM

**Q.** What about the IC50 (8226/I-R myeloma cells; 8226/I-R, MTT, read-out: IC50) of the same compound?
**A.** 16000 nM

**Q.** And the “Cross-resistance of imexon-resistant cells” value (8226/I-R myeloma cells; MTT)?
**A.** partial cross-resistance

**Q.** And the “Fold Resistance (IC50 resistant cells/IC50 sensitive cells)” value (8226/I-R myeloma cells; Table 4, 8226/I-R vs 8226/S)?
**A.** 1.65

**Q.** With `O=C1c2c(O)ccc(O)c2C(=O)c2c(NCCNCCO)ccc(NCCNCCO)c21` [mitoxantrone] as the compound, how does the “Fold resistance of WiDr MITOX cells” value (WiDr MITOX cells) read?
**A.** 21 fold

**Q.** With `N#CC1CN1C(=O)Nc1ccc(Cl)c(Cl)c1` (centres unmarked) [AMP 408, 2-Cyanoaziridine-1-[N-(3,4-dichlorophenyl)]carboxamide] as the compound, how does the IC50 ([1]; Sensitive L-1210, drug continuously present 8 days, read-out: IC50) read?
**A.** 0.7 µg/mL (≈ 2.73 µM)

**Q.** And the IC50 (8226/S myeloma cells; [5])?
**A.** 0.27 µg/mL

**Q.** And the “Enhanced potency: decrease in IC50 against myeloma cell growth” value (8226/S myeloma cells; compared with imexon)?
**A.** > 40%

**Q.** And the IC50 (8226/I-R myeloma cells; [6])?
**A.** 0.68 µg/mL

**Q.** And the “Fold Resistance of IC50 R/IC50 's” value (8226/I-R myeloma cells; Table 5)?
**A.** 2.5

**Q.** And the “Fold Resistance of IC50 's (MDR/S)” value ([2]; L-1210 MDR vs sensitive, 11520 min)?
**A.** 2.7

**Q.** And the IC50 ([2]; MDR L-1210, drug continuously present 8 days, read-out: IC50)?
**A.** 1.9 µg/mL (≈ 7.42 µM)

**Q.** With `CC[C@]1(O)C[C@@H]2CN(CCc3c([nH]c4ccccc34)[C@@](C(=O)OC)(c3cc4c(cc3OC)N(C)[C@H]3[C@@](O)(C(=O)OC)[C@H](OC(C)=O)[C@]5(CC)C=CCN6CC[C@]43[C@@H]65)C2)C1` [vinblastine] as the compound, how does the “Cross-resistance of L-1210 MDR” value [3] read?
**A.** cross-resistant

**Q.** What does the source list for `CC[C@]1(O)C[C@H]2CN(CCc3c([nH]c4ccccc34)[C@@](C(=O)OC)(c3cc4c(cc3OC)N(C=O)[C@H]3[C@@](O)(C(=O)OC)[C@H](OC(C)=O)[C@]5(CC)C=CCN6CC[C@]43[C@@H]65)C2)C1` [Vincristine, reference compound]?
**A.** Cross-resistance of L-1210 MDR [3]: cross-resistant; Fold resistance of WiDr MITOX cells (WiDr MITOX cells): 2 fold; IC50 (8226/S myeloma cells; [7]): 2.8 nM; Cross-resistance of imexon-resistant cells (8226/I-R myeloma cells; MTT): remains sensitive; IC50 (8226/I-R myeloma cells; [8]): 2.4 nM; Fold Resistance (IC50 resistant cells/IC50 sensitive cells) (8226/I-R myeloma cells; Table 4, 8226/I-R vs 8226/S): 0.88

**Q.** With Bleomycin [reference compound] as the compound, how does the IC50 (8226/S myeloma cells; 8226/S, MTT, bleomycin) read?
**A.** 7.0 µg/mL

**Q.** And the IC50 (8226/I-R myeloma cells; 8226/I-R, MTT, bleomycin)?
**A.** 7.8 µg/mL

**Q.** What about the “Cross-resistance of imexon-resistant cells” value (8226/I-R myeloma cells; MTT) of the same compound?
**A.** remains sensitive

**Q.** What about the “Fold Resistance (IC50 resistant cells/IC50 sensitive cells)” value (8226/I-R myeloma cells; Table 4, 8226/I-R vs 8226/S) of the same compound?
**A.** 1.11

**Q.** Which results are given for `CO[C@@]12[C@H](COC(N)=O)C3=C(C(=O)C(C)=C(N)C3=O)N1C[C@@H]1N[C@@H]12` [Mitomycin C, reference compound]?
**A.** IC50 (8226/S myeloma cells; [7]): 66 nM; Cross-resistance of imexon-resistant cells (8226/I-R myeloma cells; MTT): partial resistance; IC50 (8226/I-R myeloma cells; [8]): 99 nM; Fold Resistance (IC50 resistant cells/IC50 sensitive cells) (8226/I-R myeloma cells; human, 8226 myeloma cells): 1.50

**Q.** What does the source list for `N.N.[Cl][Pt][Cl]` [Cisplatin, reference compound]?
**A.** Resistance of OVCAR-3 [4]: resistant in vitro to clinically relevant concentrations; IC50 (8226/S myeloma cells; 8226/S, MTT, read-out: IC50): 1100 nM; IC50 (8226/I-R myeloma cells; 8226/I-R, MTT, read-out: IC50): 2000 nM; Cross-resistance of imexon-resistant cells (8226/I-R myeloma cells; MTT): partial cross-resistance; Fold Resistance (IC50 resistant cells/IC50 sensitive cells) (8226/I-R myeloma cells; Table 4, 8226/I-R vs 8226/S): 1.85

**Q.** Which “Resistance of OVCAR-3” value [4] does the source give for `N[C@@H](Cc1ccc(N(CCCl)CCCl)cc1)C(=O)O` [Melphalan, reference compound] here?
**A.** resistant in vitro to clinically relevant concentrations

**Q.** What about the IC50 (8226/S myeloma cells; Homo sapiens) of the same compound?
**A.** 62 nM

**Q.** And the IC50 (8226/I-R myeloma cells; Homo sapiens)?
**A.** 5300 nM

**Q.** What about the “Fold Resistance (IC50 resistant cells/IC50 sensitive cells)” value (8226/I-R myeloma cells; Table 4, 8226/I-R vs 8226/S) of the same compound?
**A.** 0.81
